Data: patent US7049396B2, “Synthetic peptides that inhibit leukocyte superoxide anion production and/or attract leukocytes” (priority 1995, dated 2006)
pIC50: −log10 of the molar value. Converted amounts (≈) assume the structure as drawn. Where two headings read alike, the source gives them in different places. Where a SMILES comes first, the peptide text is derived from it.

Assays:
[1] = biological target: T1, cell-free NADPH oxidase (human neutrophil cytosol and membranes) (Homo sapiens, UniProt P14598); experiment: Cell-free O2- production assay; assay type: biochemical
T1 construct: 10^6 cell equivalents of human neutrophil cytosol; from tissue; host or cells: human peripheral blood neutrophils (cytosol and deoxycholate-solubilized membranes)
T1 sequence (P14598 1-390): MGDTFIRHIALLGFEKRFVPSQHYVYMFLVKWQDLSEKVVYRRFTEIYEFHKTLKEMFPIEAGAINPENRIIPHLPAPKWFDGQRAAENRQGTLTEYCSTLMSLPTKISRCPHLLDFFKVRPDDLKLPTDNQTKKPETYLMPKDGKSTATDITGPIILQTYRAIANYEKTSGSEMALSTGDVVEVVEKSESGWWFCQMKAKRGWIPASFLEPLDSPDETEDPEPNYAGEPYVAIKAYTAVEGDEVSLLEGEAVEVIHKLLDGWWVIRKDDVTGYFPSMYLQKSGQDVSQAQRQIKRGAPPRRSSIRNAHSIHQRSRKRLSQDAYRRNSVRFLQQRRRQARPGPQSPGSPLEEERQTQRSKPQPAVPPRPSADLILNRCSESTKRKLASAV
Method: Reactions (100 μl) contained 10^6 cell equivalents of human neutrophil cytosol and 5×10^5 cell equivalents of deoxycholate-solubilized membranes prepared from human peripheral blood neutrophils. […] Control reactions contained 5 μg of superoxide dismutase. Superoxide anion generation was calculated based on superoxide dismutase-inhibitable changes in cytochrome c absorbance observed at 551 nm. The reactions were followed for 20 min. after addition of arachidonic acid, with absorbance readings taken at 1-min. intervals. […] Determinations were based on reactions performed in duplicate. • (ii) Binding assays. Neutrophils were disrupted by sonication, and unbroken cells, debris, and granules were removed by centrifuigation (13,000×g for 60 min.). Cytosol fractions were prepared by centrifugation (100,000 g for 45 min.) of the supernatants to remove residual membranes. Cytosolic proteins (15 μg in reducing buffer) were separated on a 7.5% SDS PAGE gel, transferred to PVDF membranes, and probed with biotinylated PR-39 (0.3 μM) for 2 hr. Binding between PR-39 and cytosolic proteins were visualized by a chemiluminescent streptavidin alkaline phosphatase system using an Epson scanner (Torrance, Calif.) and the NIH Image program. PR-39 was labeled with biotin hydrazide at the carboxy-terminus (Pierce Chemical Co., Rockford, Ill.) and purified by gel filtration chromatography.

S. typhimurium = experiment: Survival of mice after oral S. typhimurium challenge (first experiment); assay type: in vivo, A/J mice; settings: 100 or 250 μg/mouse
Method: Effect of PR-26 on survival of mice challenged with S. typhimurium. Three separate S. typhimurium challenge studies were conducted with mice. In the first experiment, 45 A/J mice (Jackson Labs, Bar Harbor, Me.) were orally challenged with S. typhimurium. Feed was withdrawn 4 hrs. prior to an oral inoculation. Twenty min. prior to the inoculation with S. typhimurium mice were given a 30 μl dose of a 10% sodium bicarbonate solution in PBS. S. typhimurium, strain KSU007, was started in brain heart infusion broth overnight and then grown for 6 hrs. in Luria Broth Base (GIBCO, Gaithersburg, Md.). After centrifugation, bacteria were suspended in a 1% gelatin solution (final concentration 1.24×10^10 S. typhimurium/ml), and then 25 μl were given orally. Immediately following oral inoculation with S. typhimurium, mice were given 0, 100, or 250 μg of PR-26 in PBS. A second dose of PR-26 or PBS was given 4 hrs. later.

Staphylococcus aureus = experiment: MIC/MBC microdilution broth method; assay type: cell-based
Method: (§1) Plates were incubated at 37° C. for 18 hr. […] Viable bacteria were counted. Tests were repeated on three different days. […] The results were expressed as the mean ± standard deviation. […] S. choleraesuis, ATCC 6962 was used in this experiment. […] Slides were stained with LeukoStat solutions (Fisher, Pittsburgh, Pa.). […] At least 200 neutrophils were examined. […] Tests were repeated on three different days. Results were expressed as the mean±standard deviation.

Salmonella typhimurium = experiment: MIC/MBC microdilution broth method; assay type: cell-based; settings: murium
Method: as §1

Streptococcus suis = experiment: MIC/MBC microdilution broth method; assay type: cell-based
Method: as §1

Escherichia coli, 25922 = experiment: MIC/MBC microdilution broth method; assay type: cell-based
Method: as §1

Salmonella choleraesuis = assay type: cell-based
Method: as §1

[2] = tested on: S. typhimurium, KSU isolate 7; experiment: Lawn-spotting antibacterial assay (S. typhimurium); assay type: cell-based, Salmonella typhimurium; settings: 5 μl spotted, inactive segments up to 1 mg/ml
[3] = tested on: whole-cell NADPH oxidase activity of porcine peripheral blood neutrophils; experiment: Whole-cell O2- production, ferricytochrome c reduction; assay type: cell-based; settings: incubated 150 min. before PMA stimulation
Method: Regulation of neutrophil O2^− production by PR-26 and PR-39. • (i) O2^− production assays. Whole-cell O2^− production by por-cine peripheral blood neutrophils was determined by the superoxide dismutase-inhibitable reduction of ferricytochrome c as previously described (Shi et al., 1994a). Cell-free O2^− production was measured as previously described (Leto et al., 1991) using 96-well plates and a Molecular Devices Thermomax microplate reader (Menlo Park, Calif.). Reactions (100 μl) contained 10^6 cell equivalents of human neutrophil cytosol and 5×10^5 cell equivalents of deoxycholate-solubilized membranes prepared from human peripheral blood neutrophils. Reaction mixtures contained 50 mM potassium phosphate (pH 7), 0.2 mM acetylated cytochrome c, 4 mM MgCl2, 1 mM EGTA, 10 μM FAD, 1 μM GTP-γS, and 200 μM NADPH. The reactions were initiated by addition of 40 μM arachidonic acid. Control reactions contained 5 μg of superoxide dismutase. Superoxide anion generation was calculated based on superoxide dismutase-inhibitable changes in cytochrome c absorbance observed at 551 nm. The reactions were followed for 20 min. after addition of arachidonic acid, with absorbance readings taken at 1-min. intervals. Maximum rates of superoxide generation were calculated from a linear least squares fit of 10 consecutive 1-min. data points. Determinations were based on reactions performed in duplicate. • (ii) Binding assays. Neutrophils were disrupted by sonication, and unbroken cells, debris, and granules were removed by centrifuigation (13,000×g for 60 min.). Cytosol fractions were prepared by centrifugation (100,000 g for 45 min.) of the supernatants to remove residual membranes. Cytosolic proteins (15 μg in reducing buffer) were separated on a 7.5% SDS PAGE gel, transferred to PVDF membranes, and probed with biotinylated PR-39 (0.3 μM) for 2 hr. Binding between PR-39 and cytosolic proteins were visualized by a chemiluminescent streptavidin alkaline phosphatase system using an Epson scanner (Torrance, Calif.) and the NIH Image program. PR-39 was labeled with biotin hydrazide at the carboxy-terminus (Pierce Chemical Co., Rockford, Ill.) and purified by gel filtration chromatography.

E. coli, ATCC 25922 = experiment: Gel-overlay antibacterial assay; assay type: cell-based, Escherichia coli; settings: 10 μg peptide per lane, AU-PAGE gel overlaid with E. coli, 18 hr
E. coli, ATTC 25922 = experiment: Lawn-spotting antibacterial assay (E. coli); assay type: cell-based, Escherichia coli; settings: 5 μl spotted, inactive segments up to 1 mg/ml
porcine neutrophils = experiment: Neutrophil chemotaxis, modified Boyden chamber; assay type: cell-based; settings: peptide at 1 μM, 30 min
Method: Influence of PR-39 on neutrophil chemotaxis. Chemotaxis of porcine neutrophils was measured by the procedure of Salak et al. (1993). Briefly, PR-14, PR15, PR-16, PR-26, or PR-39 (30 μl in Dulbecco's Modified Eagle's medium) were placed in the bottom chamber of a modified Boyden chamber (Neuro Probe, Cabin John, Md.) and porcine neutrophils (50 μl at 5×10^6 cells/ml) were placed in the top chamber. The chambers were incubated at 37° C. for 30 min. Cells that migrated through the porous membrane (pore size 5 μm) were stained using LeukoStat solution and enumerated. Five microscope fields were counted and the cells that migrated through the membrane were standardized to the medium control and referred to as the migration index.

[4] = cell-free assay, read-out: IC50 of O2- generation

Method for Escherichia coli, K88: Briefly, 50 μl of twofold serial dilutions (128 to 0.25 μM) of synthetic peptides were dispensed into wells of 96-well tissue culture plates. Bacteria (E. coli, ATCC 25922; E. coli, K88; S. typhimurium, fresh isolate from a dog; Salmonella choleraesuis ATCC 6962; Streptococcus suis, fresh isolate from porcine spleen; and Staphylococcus aureus) from sheep-blood or brain-heart-infusion agar plates were standardized to 0.5 McFarland in demineralized water using a radiometer/sensititre (Chelsea Instrument Ltd., England). The water/bacteria suspension (100 μl) was immediately transferred to 10 ml of cation-adjusted Muller-Hinton broth and 50 μl of the bacterial suspension then were added to each well of the microtiter plate. Plates were incubated for 20 hr. at 37° C. and MICs were determined. Ten microliters of bacterial suspensions in Muller-Hinton broth also were diluted to determine the actual bacterial concentration using standard colony forming unit (CFU) counting. After determination of the MICs, 10 μl of each bacteria-peptide suspension were plated on sheep-blood or brain-heart-infusion agar plates and incubated for 24 hr. at 37° C. to determine the MBCs. MBC was considered that peptide concentration that inhibited 99.9% of the original CFUs (NCCLS, 1990). • (iv) PAE.

Compound	pIC50 [1, 4]	antibacterial activity (clear zone on bacterial lawn) [2]	O2- generation by intact neutrophils [3]	antibacterial activity (clear zones on overlaid gel) (E. coli, ATCC 25922)	antibacterial activity (clear zone on bacterial lawn) (E. coli, ATTC 25922)	neutrophil chemotaxis (migration index) (porcine neutrophils)	effect on O2- generation ([1]; cell-free assay)	other results
CC(C)C[C@H](NC(=O)[C@H](Cc1ccc(O)cc1)NC(=O)[C@@H]1CCCN1C(=O)[C@@H]1CCCN1C(=O)[C@H](CCCNC(=N)N)NC(=O)[C@@H]1CCCN1C(=O)[C@H](CCCNC(=N)N)NC(=O)[C@H](CCCNC(=N)N)NC(=O)[C@@H](N)CCCNC(=N)N)C(=O)N1CCC[C@H]1C(=O)N[C@@H](CCCNC(=N)N)C(=O)N1CCC[C@H]1C(=O)N[C@@H](CCCNC(=N)N)C(=O)N1CCC[C@H]1C(=O)N1CCC[C@H]1C(=O)N1CCC[C@H]1C(=O)N[C@@H](Cc1ccccc1)C(=O)N[C@@H](Cc1ccccc1)C(=O)N1CCC[C@H]1C(=O)O [PR-19] (H-RRRPRPPYLPRPRPPPFFP-OH)	~5.30	–	–	–	–	–	–	–
CC[C@H](C)[C@H](NC(=O)[C@H](CCCNC(=N)N)NC(=O)[C@@H]1CCCN1C(=O)[C@@H]1CCCN1C(=O)[C@H](CC(C)C)NC(=O)[C@H](CCCNC(=N)N)NC(=O)[C@@H]1CCCN1C(=O)[C@@H]1CCCN1C(=O)[C@H](Cc1ccccc1)NC(=O)[C@H](Cc1ccccc1)NC(=O)[C@@H]1CCCN1C(=O)[C@@H]1CCCN1C(=O)[C@@H]1CCCN1C(=O)[C@H](CCCNC(=N)N)NC(=O)[C@@H]1CCCN1C(=O)[C@H](CCCNC(=N)N)NC(=O)[C@@H]1CCCN1C(=O)[C@H](CC(C)C)NC(=O)[C@H](Cc1ccc(O)cc1)NC(=O)[C@@H]1CCCN1C(=O)[C@@H]1CCCN1C(=O)[C@H](CCCNC(=N)N)NC(=O)[C@@H]1CCCN1)C(=O)O [PR-23] (H-PRPPYLPRPRPPPFFPPRLPPRI-OH)	~4.60	–	–	–	–	–	–	–
CC[C@H](C)[C@H](NC(=O)[C@H](CCCNC(=N)N)NC(=O)[C@@H]1CCCN1C(=O)[C@@H]1CCCN1C(=O)[C@H](CC(C)C)NC(=O)[C@H](CCCNC(=N)N)NC(=O)[C@@H]1CCCN1C(=O)[C@@H]1CCCN1C(=O)[C@H](Cc1ccccc1)NC(=O)[C@H](Cc1ccccc1)NC(=O)[C@@H]1CCCN1C(=O)[C@@H]1CCCN1C(=O)[C@@H]1CCCN1C(=O)[C@H](CCCNC(=N)N)NC(=O)[C@@H]1CCCN1C(=O)[C@H](CCCNC(=N)N)NC(=O)[C@@H]1CCCN1C(=O)[C@H](CC(C)C)NC(=O)[C@H](Cc1ccc(O)cc1)NC(=O)[C@@H]1CCCN1C(=O)[C@@H]1CCCN1C(=O)[C@H](CCCNC(=N)N)NC(=O)[C@@H]1CCCN1C(=O)[C@H](CCCNC(=N)N)NC(=O)[C@H](CCCNC(=N)N)NC(=O)[C@@H](N)CCCNC(=N)N)C(=O)O [PR-26] (H-RRRPRPPYLPRPRPPPFFPPRLPPRI-OH)	–	–	–	–	–	–	–	MBC (Escherichia coli, K88): 4 µM (≈ 12.9 µg/mL); MIC (Escherichia coli, K88): 1 µM (≈ 3.23 µg/mL); toxicity in mice (S. typhimurium): no evidence of toxicity; MIC (Staphylococcus aureus): >250 µM; MBC (Salmonella typhimurium): 2 µM (≈ 6.46 µg/mL); MIC (Salmonella typhimurium): 2 µM (≈ 6.46 µg/mL); MBC (Streptococcus suis): >64 µM; MIC (Streptococcus suis): 16 µM (≈ 51.7 µg/mL); MBC (Escherichia coli, 25922): 8 µM (≈ 25.8 µg/mL); MIC (Escherichia coli, 25922): 2 µM (≈ 6.46 µg/mL); MBC (Salmonella choleraesuis): 2 µM (≈ 6.46 µg/mL); MIC (Salmonella choleraesuis): 1 µM (≈ 3.23 µg/mL); pIC50 [1]: ~6.00
PR-14: NH2-terminal segment 1 to 14 of PR-39; Sequence ID No. 7 (RRRPRPPYLPRPRP)	–	no antibacterial activity	did not significantly reduce	only PR-26 and PR-39 were found to have antibacterial activity	no antibacterial activity	chemotactic agents	–	concentrations at which O2- generation was reduced ([1]; cell-free assay): greater than 25 μM
PR-15: COOH-terminal segment 25 to 39 of PR-39; Sequence ID No. 6 (RIPPGFPPRFPPRFP)	–	no antibacterial activity	did not significantly reduce	only PR-26 and PR-39 were found to have antibacterial activity	no antibacterial activity	chemotactic agents	did not affect	–
PR-16: central segment 11 to 26 of PR-39; Sequence ID No. 5 (RPRPPPFFPPRLPPRI)	–	no antibacterial activity	did not significantly reduce	only PR-26 and PR-39 were found to have antibacterial activity	no antibacterial activity	chemotactic agents	did not affect	–
